Assay results as given in PMC9947105, “Structural remodelling of the carbon–phosphorus lyase machinery by a dual ABC ATPase” (Nature Communications, 2023).

How the values were obtained:
[1] = molecular target: T1, Phn(GHIJK)2 closed, Zn2+ site at the PhnI-PhnJ interface (His site) (Escherichia coli, UniProt P16687+P16688); experiment: cryo-EM structure, […] Å; type: binding; conditions: co-purified ligand modelled from density, identity not confirmed by mass spectrometry, absent in open state
T1 construct: class without PhnL density from the purified wild-type Phn(GHIJKL)2 sample (pRBS01, TEV-treated PhnK Strep-tag); with Alpha-D-ribose 1-methylphosphonate 5-triphosphate synthase subunit PhnH

[2] = molecular target: T2, Phn(GHIJKL)2 (ATPase assay) (Escherichia coli, UniProt P16678+P16679); conditions: 1 or 5 mM ATP, Mg2+, pH 7.5, 37 °C (coupled assay); hydrolysis by PhnK and PhnL
T2 construct: gene phnK

[3] = molecular target: Phn(GHIJKL)2, PhnL nucleotide-binding site (Escherichia coli, UniProt P16679); conditions: ATP turnover (1.5 mM ATP, 6 mM MgCl2, 37 °C, 15 s); both PhnL sites, dimer open; PhnK holds ADP + Pi
[4] = molecular target: T3, Phn(GHIJKL)2 (ATPase assay) (Escherichia coli, UniProt P16678+P16679, P16678:E171Q); conditions: 1 or 5 mM ATP, Mg2+, pH 7.5, 37 °C (coupled assay); hydrolysis by PhnK and PhnL
T3 construct: gene phnK

[5] = molecular target: T4, Phn(GHIJKL)2, PhnK nucleotide-binding site (Escherichia coli, UniProt P16678, E171Q); experiment: cryo-EM structure, […] Å; conditions: 5 mM AMPPNP, 5 mM MgCl2, pH 7.5; both PhnK sites, closed dimer; PhnL empty
T4 construct: hetero-dodecamer, 327 kDa, expressed in E. coli Lemo21 from pRBS01 (phn genes from pBW120); C-terminal TEV-2xStrep-tag on PhnK, TEV-treated for wild-type cryo-EM sample; with Alpha-D-ribose 1-methylphosphonate 5-triphosphate synthase subunit PhnL; Alpha-D-ribose 1-methylphosphonate 5-phosphate C-P lyase; Alpha-D-ribose 1-methylphosphonate 5-triphosphate synthase subunit PhnI; Alpha-D-ribose 1-methylphosphonate 5-triphosphate synthase subunit PhnH

[6] = molecular target: T5, Phn(GHIJKL)2, PhnK nucleotide-binding site (Escherichia coli, UniProt P16678); experiment: cryo-EM structure, […] Å; conditions: ATP turnover (1.5 mM ATP, 6 mM MgCl2, 37 °C, 15 s); post-hydrolysis state, ADP + Pi in PhnK site
T5 construct: hetero-dodecamer, 327 kDa, expressed in E. coli Lemo21 from pRBS01 (phn genes from pBW120); C-terminal TEV-2xStrep-tag on PhnK, TEV-treated for wild-type cryo-EM sample; with Alpha-D-ribose 1-methylphosphonate 5-triphosphate synthase subunit PhnL; Alpha-D-ribose 1-methylphosphonate 5-phosphate C-P lyase; Alpha-D-ribose 1-methylphosphonate 5-triphosphate synthase subunit PhnI; Alpha-D-ribose 1-methylphosphonate 5-triphosphate synthase subunit PhnH

[7] = molecular target: the molecule itself; experiment: cryo-EM structure; wild type Phn(GHIJKL)2 purified as a complex with ATP and EDTA, then 1.5 mM ATP and 6 mM MgCl2, 15 s at 37 °C (ATP turnover); 3D classes: Phn(GHIJKL)2 with ADP + Pi, Phn(GHIJK)2 closed, Phn(GHIJK)2 open
[8] = molecular target: the molecule itself; experiment: cryo-EM structure; Phn(GHIJKL)2-PhnK E171Q co-expressed from the phnGHIJKLMNOP plasmid and purified as a complex on StrepTrap with AMPPNP; 2.5 mg/mL; 25 mM HEPES/KOH pH 7.5, 125 mM KCl, 5 mM MgCl2, 5 mM BME

**Q.** How did the “cryo-EM structure, 2.0 Å” value [1] turn out when O=P(O)(O)OC[C@H]1O[C@@H]2OP(=O)(O)O[C@@H]2[C@@H]1O [5-phospho-α-D-ribose-1,2-cyclic-phosphate] was run?
**A.** we were able to model the ligand as 5-phospho-α-D-ribose-1,2-cyclic-phosphate

**Q.** What does the source list for Nc1ncnc2c1ncn2[C@@H]1O[C@H](COP(=O)(O)OP(=O)(O)OP(=O)(O)O)[C@@H](O)[C@H]1O [ATP]?
**A.** ion exchange of nucleotides; coupled pyruvate kinase / lactate dehydrogenase ATP [2]: clear ATPase activity for the wildtype PhnGHIJKL complex; cryo-EM structure, 1.9 Å [3]: binding of ATP to both nucleotide binding sites in PhnL; ion exchange of nucleotides; coupled pyruvate kinase / lactate dehydrogenase ATP [4]: we observed a significantly reduced ATPase activity

**Q.** Which “cryo-EM structure, 2.1 Å” value [5] does the source give for Nc1ncnc2c1ncn2[C@@H]1O[C@H](COP(=O)(O)OP(=O)(O)NP(=O)(O)O)[C@@H](O)[C@H]1O [AMPPNP] here?
**A.** clear density for AMPPNP allowed for modelling of a nucleotide in both active site pockets

**Q.** How did the “cryo-EM structure, 1.9 Å” value [6] turn out when Nc1ncnc2c1ncn2[C@@H]1O[C@H](COP(=O)(O)OP(=O)(O)O)[C@@H](O)[C@H]1O [ADP] was run?
**A.** contains ADP and Pi and consequently represents a true ATP post-hydrolysis state

B1: PhnL (natural protein, Escherichia coli)
chain: MINVQNVSKTFILHQQNGVRLPVLNRASLTVNAGECVVLHGHSGSGKSTLLRSLYANYLPDEGQIQIKHGDEWVDLVTAPARKVVEIRKTTVGWVSQFLRVIPRISALEVVMQPLLDTGVPREACAAKAARLLTRLNVPERLWHLAPSTFSGGEQQRVNIARGFIVDYPILLLDEPTASLDAKNSAAVVELIREAKTRGAAIVGIFHDEAVRNDVADRLHPMGASS
notes: PhnL, non-transporter ABC protein of the Escherichia coli phn operon; untagged; β hairpin extension residues 7-14; Identified in the complex by mass spectrometry and by the EM density; also called PhnL subunit; ABC module PhnL; source: E. coli Lemo21 (pRBS01 or pRBS01-PhnK E171Q), co-expressed, purified as part of the complex through Strep-tagged PhnK
**Q.** Does B1 bind [7]?
**A.** binds

B2: PhnI (natural protein, Escherichia coli)
chain: MYVAVKGGEKAIDAAHALQESRRRGDTDLPELSVAQIEQQLNLAVDRVMTEGGIADRELAALALKQASGDNVEAIFLLRAYRTTLAKLAVSEPLDTTGMRLERRISAVYKDIPGGQLLGPTYDYTHRLLDFTLLANGEAPTLTTADSEQQPSPHVFSLLARQGLAKFEEDSGAQPDDITRTPPVYPCSRSSRLQQLMRGDEGYLLALAYSTQRGYGRNHPFAGEIRSGYIDVSIVPEELGFAVNVGELLMTECEMVNGFIDPPGEPPHFTRGYGLVFGMSERKAMAMALVDRALQAPEYGEHATGPAQDEEFVLAHADNVEAAGFVSHLKLPHYVDFQAELELLKRLQQEQNHG
notes: PhnI, subunit of carbon-phosphorus lyase, Escherichia coli phn operon; untagged, encoded on the expression plasmid; Whole phn genes amplified from pBW120; also called PhnI subunit of the C–P lyase core complex
**Q.** Does B2 bind [7]?
**A.** binds

B3: PhnK E171Q with a C-terminal TEV-2xStrep-tag (natural protein, Escherichia coli)
chain: MNQPLLSVNNLTHLYAPGKGFSDVSFDLWPGEVLGIVGESGSGKTTLLKSISARLTPQQGEIHYENRSLYAMSEADRRRLLRTEWGVVHQHPLDGLRRQVSAGGNIGERLMATGARHYGDIRATAQKWLEEVEIPANRIDDLPTTFSGGMQQRLQIARNLVTHPKLVFMDQPTGGLDVSVQARLLDLLRGLVVELNLAVVIVTHDLGVARLLADRLLVMKQGQVVESGLTDRVLDDPHHPYTQLLVSSVLQN
notes: PhnK, non-transporter ABC protein of the Escherichia coli phn operon, with the Walker B mutation E171Q; also called Phn(GHIJKL)2-PhnK E171Q; not shown: 2xStrep-tag (after a TEV site), C-terminal, kept
**Q.** Does B3 bind [8]?
**A.** binds

B4: PhnK wild type, TEV-2xStrep-tag removed with TEV protease (natural protein, Escherichia coli)
chain: MNQPLLSVNNLTHLYAPGKGFSDVSFDLWPGEVLGIVGESGSGKTTLLKSISARLTPQQGEIHYENRSLYAMSEADRRRLLRTEWGVVHQHPLDGLRRQVSAGGNIGERLMATGARHYGDIRATAQKWLEEVEIPANRIDDLPTTFSGGMQQRLQIARNLVTHPKLVFMDEPTGGLDVSVQARLLDLLRGLVVELNLAVVIVTHDLGVARLLADRLLVMKQGQVVESGLTDRVLDDPHHPYTQLLVSSVLQN
notes: PhnK, non-transporter ABC protein of the Escherichia coli phn operon; Residues of the TEV site probably stay at the C-terminus after cleavage; also called wild type PhnK; not shown: 2xStrep-tag (after a TEV site), C-terminal, cleaved
**Q.** Does B4 bind [7]?
**A.** binds
